# Read-outs that look alike come from different tables or passages of the source. {NH2} = amino group (5'-NH2) on the aptamer
# Legend:
# [1] = molecular target: T1, lysozyme (Gallus gallus, UniProt P00698); settings: in solution; read-out: Kd measured in solution; cited from earlier work
# T1 construct: Hen egg white lysozyme, BSA, and human trypsin were ordered from Sigma-Aldrich; purchased Sigma-Aldrich; host or cells: hen egg white
# [2] = molecular target: T1, lysozyme; experiment: Aptamer/lysozyme binding affinity (Kd); design: species or system Hen
# Method: The LOD is estimated to be 0.36 μg/mL (2.4 pmol, based on 3σ from six independent measurements) using a standard fluorometer, which is more sensitive to aptamer-based electrochemical and fluorescent arrays and is similar to that obtained from a standard of ELISA. (See Vidal, M. L., et al., Agric. Food Chem. 2005, 53, 2379-2385, the entire teachings of which are incorporated herein by reference). However, the strategy of using Apt-NP as a platform for lysozyme detection reduces the bonding affinity (Kd) of the aptamer to its target. […] (See, for example, Cox, J. C.; Ellington, A. D., Bioorg. Med. Chem. 2001, 9, 2525-2531, the entire teachings are incorporated herein by reference). The large Kd on the NP surface is detrimental to assay sensitivity, could be the result of: (1) the steric hindrance induced by the folded aptamer upon binding to lysozyme which prevents the adjacent aptamers from folding into G-quartet structure; (2) the binding of lysozyme on the Apt-NP surface hampers subsequent aptamer/lysozyme binding due to electrostatic repulsion.
# [3] = Photostability in stained cells under continuous laser scanning (CLSM); type: physicochemical; settings: excitation at 405 nm; MCF-7 cells
# Method: FIG. 2 is time-resolved confocal laser scanning microscopy (CLSM) fluorescence images of SKBR-3 breast cancer cells stained by affibody-attached P2 under laser scanning for (a) 0 min and (b) 15 minutes.
# FIG. 8 is confocal image of Hela cells under continuous excitation (λmax=488 nm) after 0 min (A) and 15 min (B) and the fluorescence/transmission overlapped images of the corresponding cells (C, D) taken after incubation with P3-phalloidin for 2 h at 0.5 μM.
# I0 is the initial fluorescence intensity of the sample […].
# Targeted fluorescence imaging of HER2-positive cancer cells using a P2-affibody conjugate was investigated. […]
# To explore the potential of the CPE-g-PEG molecular brush in long-term clinical applications, the photostability and cytotoxicity of P4.1 were investigated. Changes in the CLSM images of P4.1-stained MCF-7 cells under continuous laser scanning were monitored to evaluate the photostability of P4.1 in cells. […] In comparison, most commercial dyes (such as fluorescein, rhodamine and Cy5) usually lose their fluorescence within 3 minutes under CLSM laser illumination. […]
# The uptake of HCPEPEI-1/DNA and HCPEPEI-2/DNA polyplexes by COS-7 cells was monitored using confocal lasing scanning microscopy (CLSM). […] The dual modal HCPEPEIs fluorescent gene vectors could facilitate in tracking the delivery of genes due to the intrinsic fluorescence from the HCPE core. […]
# T1 sequence (P00698 19-147): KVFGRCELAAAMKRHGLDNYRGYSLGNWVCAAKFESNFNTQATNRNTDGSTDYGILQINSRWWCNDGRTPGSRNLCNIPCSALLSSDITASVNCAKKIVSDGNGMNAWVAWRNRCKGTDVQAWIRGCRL
compound,measurement,setting,value
"Poly[9,9-bis(2-(2-(2-methoxyethoxy)ethoxy)ethyl)fluorenevinylene-alt-9,9-bis(4-sulfonatobutyl)fluorenevinylene Sodium Salt] [PFVSO3]",water solubility,,approximately 20 mg/mL
"5′-NH2-ATCTACGAATTCATCAGGGCTAAAGAGTGCAGAGTTACTTAG (ATCTACGAATTCATCAGGGCTAAAGAGTGCAGAGTTACTTAG; 5' {NH2}, sugars by position and backbone not given here) [aptamer]",Kd,[1],31 nM
same,apparent Kd,"[2]; aptamer on silica NP surface, lysozyme concentration at half-maximum signal",approximately 9 μg/mL
same,Kd,"[2]; aptamer on silica NP surface, lysozyme concentration at half-maximum signal, read-out: apparent Kd",~625 nM
same,Kd on NP surface relative to Kd in solution,[2]; larger,20 fold
O=C1OC2(c3ccc(O)cc3Oc3cc(O)ccc32)c2ccc(N=C=S)cc21 [FITC],decrease of fluorescence intensity after continuous excitation,[3],~56%
